Results reported in publication PMC11439681, “The identification of potent dual-target monopolar spindle 1 (MPS1) and histone deacetylase 8 (HDAC8) inhibitors through pharmacophore modeling, molecular docking, molecular dynamics simulations, and biological evaluation” (Frontiers in Pharmacology, 2024).

Tests used:
[1] = system: drug-resistant liver cancer cells (R-HepG2); experiment: MTT cytotoxicity assay, R-HepG2; format: cell-based; conditions: Homo sapiens, 72 h cell treatment
Description: (§1) The cells (5 × 10^4 cells/well) were incubated overnight in 96-well plates. A series of solutions containing varying concentrations of inhibitors were added and incubated at 37°C for a period of 72 h. Subsequently, the culture medium was removed, followed by a subsequent incubation of the cells with a 5 mg/mL MTT stock solution for 4 h. After centrifugation, the precipitate was solubilized in DMSO and gently shaken for 15 min. Finally, the absorbance measurement at 570 nm was completed using a microplate reader. Data analysis was performed using GraphPad Prism 6.0 software.

[2] = target: T1, HDAC8 (Homo sapiens, UniProt Q9BY41); experiment: In vitro HDAC8 inhibitory assay; format: biochemical
T1 construct: purchased Abcam
T1 sequence (Q9BY41 1-377): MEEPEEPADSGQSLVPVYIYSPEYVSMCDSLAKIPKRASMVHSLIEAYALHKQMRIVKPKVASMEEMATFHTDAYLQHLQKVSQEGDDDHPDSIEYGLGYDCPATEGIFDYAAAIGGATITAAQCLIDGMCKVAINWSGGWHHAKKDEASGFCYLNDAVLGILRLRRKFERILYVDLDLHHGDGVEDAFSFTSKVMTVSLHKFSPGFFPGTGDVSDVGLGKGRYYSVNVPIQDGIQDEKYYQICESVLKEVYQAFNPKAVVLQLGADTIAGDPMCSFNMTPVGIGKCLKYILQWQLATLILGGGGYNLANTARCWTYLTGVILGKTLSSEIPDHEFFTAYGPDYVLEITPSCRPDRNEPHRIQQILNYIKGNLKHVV
Description: Inhibition of HDAC8 was determined in 96-well plates. […] The assessment of fluorescence intensity was executed at 390 nm and 460 nm via a microplate reader.

[3] = system: HEK293; experiment: MTT cytotoxicity assay, HEK293 normal cells; format: cell-based; conditions: Homo sapiens, 72 h cell treatment
Description: as §1

[4] = In vivo pharmacokinetic study; conditions: mouse, plasma, ip, BALB/c mice, i.p., 5 mg/kg
Description: MPH-5 was administered intraperitoneally to BALB/c mice at a dose of 5 mg/kg. The blood samples (0.25 mL) were collected at 0.25, 0.5, 1, 2, 4, 8, 16 and 24 h after dosing and centrifuged to obtain the plasma fraction. Plasma samples (50 μL) were transferred into a 96-well plate, followed by the addition of an internal standard solution of methanol/acetonitrile (1:1, v/v) (200 μL). After vortexing for 5 min, the mixture was centrifuged (12,000 rpm for 5 min) to obtain the supernatant (60 μL). A liquid chromatography-tandem mass spectrometry (LC-MS/MS) system was used for the pharmacokinetic study. Data were processed using Phoenix software.

[5] = system: L02; experiment: MTT cytotoxicity assay, L02 normal cells; format: cell-based; conditions: Homo sapiens, 72 h cell treatment
Description: as §1

Cn1cc(-c2cc3cnc(Nc4ccc(-c5cncn5/C=C/C(=O)NO)cc4Cl)cc3n2C(=O)OC(C)(C)C)cn1 [MPH-5]
IC50 [1]: 0.27 µM | IC50 ([2]; 90 min at 37°C): 6.07 ± 0.37 nM | HDAC8 IC50 of MPH-5 relative to belinostat ([2]; vs belinostat): about 4 fold | IC50 [3]: > 10 µM | AUC ([4]; read-out: AUC (h·nmol/L), area under the drug-time curve): 13800 nmol·h/L | Cmax ([4]; read-out: Cmax (nmol/L), maximum plasma concentration): 2920 nmol/L | bioavailability ([4]; read-out: F (%), bioavailability): 85% | half-life ([4]; read-out: T1/2 (h), elimination half-life (converted)): 3.46 h | IC50 [5]: > 10 µM
